Read-outs that look alike come from different tables or passages of the source.
How the values were obtained:
[1] = system: Con A-Lu-BSA labeled pig RBCs; assay: Chemiluminescence of Con A-Lu-BSA labeled pig RBCs with exogenous hydrogen peroxide; type: cell-based
Protocol: The luminol-bovine serum albumin (Lu-BSA) complex was made by mixing 2 mg luminol (5-amino-2, 3-dihydrophthalazine-1,4-dione), 0.2 ml of 2 mg BSA/ml PBS (pH 6.9), and 1.6 ml of PBS, pH 6.9. The preparation was then passed through a 0.22 μm nitrocellulose filter to remove insoluble luminol. Next, 0.2 ml of 2 mg Con A/ml of PBS, pH 6.9, was added to the filtrate. After gentle mixing, 10 μl of 25% glutaraldehyde were added. The solution was incubated in the refrigerator for 1 hour. To stop the conjugation, 100 mg of glycine was added to the solution. The solution was then pressed through a 48 ml column of dextran gel filtration beads equilibrated with PBS, pH 6.9. The gel exclusion size was greater than 5000 for globular molecules. The fractions were collected and tested for luminescent labeling activity.
One ml of supernatant of each 10 ml aliquot of 1:20 diluted RBCs was replaced with 1 ml of Con A-Lu-BSA solution as previously described. The preparation was incubated for 15 min. at 37° C. in a water-jacketedcell culture incubator. The cells were then pelleted in a clinical centrifuge, resuspended in PBS, and washed in the same manner two additional times. The washed cells were maintained at 4° C. until used the same day of preparation.
Following exposure to chemical or physical stressors, 100 μl of the RBC suspension was added to 500 μl of PBS, pH 7.4, containing 0.3% hydrogen peroxide, in a scintillation vial. To activate the sample, 100 μl of 0.1N NaOH were added to the vial in place in an ATP photometer (Integrating ATP Photometer Model 3000, Science Applications, San Diego, California 92121) The photometer was set to a dark count of 1 count/30 second at a sensitivity of 600 at room temperature (approximately 23° C.). All counts followed a 5 second delay period to allow for stabilization of the photomultiplier. The counts are reported as counts/30 sec.
All essays were run at room temperature. The post-collection age of those cells was 11-18 days and the cells were used the day of labeling. […] Pyruvate (1.43 mM), an autoxidizable substrate, doubled the CL of labeled cells.

pig RBCs = assay: Thermal fragility / hemolysis of RBCs (410 nm absorbance of supernatant); type: cell-based; conditions: for thermal hemolysis, 410 nm optical absorbance, Hot air / thermal hemolysis, 410 nm optical absorbance, Microwave exposed / 410 nm optical absorbance of 1:2 diluted supernatant, Hot air / 410 nm optical absorbance of 1:2 diluted supernatant, Microwave exposed: 43° C. (10 min); for thermal hemolysis, 410 nm optical absorbance, Hot air / thermal hemolysis, 410 nm optical absorbance, Microwave exposed: Con A-Lu-BSA labeled RBCs 11-14 days post collection; for 410 nm optical absorbance of 1:2 diluted supernatant, 4° C. / 410 nm optical absorbance of 1:2 diluted supernatant, Hot air / 410 nm optical absorbance of 1:2 diluted supernatant, Microwave exposed: RBCs 6 days post collection; for effect on thermal hemolysis, in words: 48° C. for 30 min
Protocol: Blood was collected from Landrace-Duroc swine from a closed herd. Pigs from this herd had previously expressed episodes of porcine stress syndrome (malignant hyperthermia) following halothane anesthesia. The blood was collected into acidic citrated dextrose solution in standard blood bags. The blood was diluted 1:10 in phosphate (0.1M) buffered saline (PBS), pH 7.4, in 10 ml aliquots, centrifuged in a clinical centrifuge, and the erythrocytes were resuspended in fresh PBS. The cells were stored at 4° C. until used in the various assays. The post-collection chronological age of the RBCs used for a particular assay is noted in the results for each assay. The cells were counted in an automated cell counter (Coulter ZBI, Coulter Electronics, Inc., Hialeah, Fla. 33010).
Red blood cells were heated in 1 or 1.5 ml aliquots of PBS pH 7.4 with or without additional reagents in cellulose nitrate or polypropylene centrifuge tubes. Two concentrations of cells were used as indicated in the results. Heating was accomplished by three methods: microwave radiation, hot air, or water bath heating. The microwave device was a circularly polarized waveguide powered by a 1-kw S-band (microwave) amplifier (Model 10704,MCL, Inc., La Grange, Ill.). The heating of the sample at a specific absorption rate (SAR) of 91±4 W/kg (continuous wave (CW), 2450MHz) was offset by an air-cooling system that maintained a constant temperature. This system has been previously described in greater detail in Kiel, J. L. and D. N. Erwin, "Microwave and thermal interactions with oxidative hemolysis", 16 Physiol. Chem. Phys. Med. NMR, 317-323 (1984), which reference is hereby incorporated in its entirety by this specific reference thereto. […] The temperature was held within ±0.2° C. by this system. In the absence of microwave radiation, the temperature was held constant by hot air alone. The microwave/hot air system was brought to 37° C. for 15 min. prior to raising the temperature to 43° C. by microwaves or hot hot air. The water bath heating held the temperature within ±0.5° C. Heating times were 10, 15, or 30 min. The temperatures examined were 37°, 43°, 45°, or 48°.
Hemoglobin released into the supernatants of the heated cells were determined by the method described in the above-incorporated reference of Kiel and Erwin (1984). In brief, the supernatants were collected following centrifugation in a clinical centrifuge, diluted 1:2 in PBS, pH 7.4, and the optical absorbances at 410 nm were determined in a dual beam spectrophotometer. Pyruvate, lactate, inosine, hydrogen peroxide, mimosine, and/or 3-amino-L-tyrosine were added to the samples as indicated in Tables 1-3 and 9-12. All reagents were diluted in PBS and the final volumes of the samples were constant.

[2] = system: Con A-Lu-BSA labeled pig RBCs; assay: Chemiluminescence of Con A-Lu-BSA labeled pig RBCs with exogenous hydrogen peroxide; type: cell-based; conditions: Sus scrofa, Erythrocyte, 1.43 mM, no cells; read-out: Percent control
porcine RBCs = assay: Nonspecific binding of Lu-BSA to porcine RBCs (base-activated chemiluminescence); type: cell-based, pig
Protocol: Blood was collected from Landrace-Duroc swine from a closed herd. Pigs from this herd had previously expressed episodes of porcine stress syndrome (malignant hyperthermia) following halothane anesthesia. The blood was collected into acidic citrated dextrose solution in standard blood bags. The blood was diluted 1:10 in phosphate (0.1M) buffered saline (PBS), pH 7.4, in 10 ml aliquots, centrifuged in a clinical centrifuge, and the erythrocytes were resuspended in fresh PBS. The cells were stored at 4° C. until used in the various assays. The post-collection chronological age of the RBCs used for a particular assay is noted in the results for each assay. The cells were counted in an automated cell counter (Coulter ZBI, Coulter Electronics, Inc., Hialeah, Fla. 33010). Nonspecific binding of Lu-BSA to porcine RBCs was measured following treatment with hydrogen peroxide, pyruvate, and/or 3-amino-L-tyrosine at 4°, 37°, or 45° C. The exposure times for those agents were 15 min, 30 min, or 72 hours. The reagents were removed by centrifugation. Three binding protocols were followed: (1) 0.25 ml of 1:20 RBCs (19 days post collection) were incubated with 0.25 ml of 1 mg/ml Lu-BSA in PBS, pH 6.9, for 30 min at 37° C. and washed (Table 1); (2) 0.05 ml of packed RBCs (less than 24 hours post collection) were resuspended in 0.2 ml of the Lu-BSA solution and incubated overnight at 4° C. […] The cells in all three protocols were washed once in PBS, pH 7.4, and resuspended in PBS to final dilutions of 1:20 for (1) and 1:30 for (2) and (3). Following this preparation, 100 μl of each cell suspension were added to 500 μl of PBS, pH 7.4, in a scintillation vial. The vial was placed in the photometer and the solution was activated by the addition of 100 μl 0.1N NaOH. The settings for the photometer were as previously described for the Con A-Lu-BSA.

peroxidase = assay: 3-aminotyrosine oxidation by peroxidase; type: biochemical
[3] = in vivo; cited from earlier work
[4] = system: 20-methylcholanthrene induced tumors; conditions: cited from earlier work
[5] = 1.43 mM, labeled RBCs 11-18 days post collection, room temperature
[6] = Sus scrofa, Erythrocyte, 1.43 mM, read-out: Percent control

## OC[C@H]1O[C@@H](n2cnc3c(O)ncnc32)[C@H](O)[C@@H]1O [Inosine]
[1]; 1.43 mM
  effect on CL of labeled cells, in words: small but significant increase
[1]; [5]
  CL (30 sec): 34,972 ± 2,732 counts/30 sec
[1]; [6]
  activity at 1430 µM: 115%
Pig RBCs; 10 mM
  benefit of storing RBCs in reagent in respect to thermal fragility, in words: no significant benefit
  thermal hemolysis, 410 nm optical absorbance, Hot air: 0.597 ± 0.080
  thermal hemolysis, 410 nm optical absorbance, Microwave exposed: 0.578 ± 0.045

## CC(=O)C(=O)O [Pyruvate]
[1]; 1.43 mM, no cells
  CL (30 sec): 420 counts/30 sec
[1]; [5]
  CL (30 sec): 60,732 ± 3,258 counts/30 sec
[1]; [6]
  activity at 1430 µM: 200%
Pig RBCs; 10 mM
  410 nm optical absorbance of 1:2 diluted supernatant, 4° C.: 0.363
  thermal hemolysis, 410 nm optical absorbance, Hot air: 0.646 ± 0.02
  thermal hemolysis, 410 nm optical absorbance, Microwave exposed: 0.646 ± 0.07
  410 nm optical absorbance of 1:2 diluted supernatant, Hot air: 0.427 ± 0.015
  410 nm optical absorbance of 1:2 diluted supernatant, Microwave exposed: 0.374 ± 0.055
Pig RBCs; pyruvate 1.33 mM, 37° C., RBCs 72 hours post collection
  spontaneous hemolysis reading: 0.362±0.016
[2]
  activity at 1430 µM: 1.4%
Porcine RBCs; 1.33 mM, 45° C., 30 min
  CL (30 s): 1203 ± 266 counts/30 s
Porcine RBCs; 1.33 mM, 30 min at 37° C., RBCs 72 hours post collection
  CL (counts/30 s): 2348 ± 646 counts/30 s
Porcine RBCs; Sus scrofa, 1.33 mM during exposure to 45° C., read-out: increase in Lu-BSA binding over the 45° C. exposure alone
  activation at 1330 µM: 101%
Porcine RBCs; Sus scrofa, 0.5 h, 1.33 mM, 45° C., 30 min, vs 4° C. control, read-out: Percent difference from control
  activation at 1330 µM: 216%
Porcine RBCs; Sus scrofa, 0.5 h, 1.33 mM, 30 min at 37° C., read-out: Percent difference from control
  activation at 1330 µM: 166%
Porcine RBCs; Sus scrofa, 0.5 h, 1.33 mM, 30 min at 37° C., read-out: increase of Lu-BSA binding
  fold induction at 1330 µM: 2.7

## NC(Cn1ccc(=O)c(O)c1)C(=O)O [L--mimosine, L-mimosine]
[1]; 630 μM
  CL (30 sec): 8,555 ± 1,044 counts/30 sec
  level of CL below natural RBC CL: 36%
[1]; 5 mM, 30 min at room temperature
  effect of prewashing labeled cells on CL, in words: no significant effect
[1]; Sus scrofa, Erythrocyte, 630 μM, read-out: Percent control
  activity at 630 µM: 28%
[1]; Sus scrofa, Erythrocyte, pretreatment 5 mM, 30 min, washed before activation, read-out: Percent control
  activity at 5000 µM: 94%
[1]; Sus scrofa, 630 μM, read-out: inhibition of CL
  inhibition at 630 µM: 72%
[1]; pretreatment 5 mM, 30 min, washed before activation
  CL (30 sec): 28,517 ± 2,591 counts/30 sec
peroxidase
  mode of inhibition, in words: uncompetitive inhibitor
Pig RBCs; 340 μM, 48° C. 30 min
  Percent difference from controls (corrected), 4° C.: 95.1%
  Percent difference from controls (corrected), 48° C.: 21.5%
Pig RBCs; 340 μM, 48° C. 30 min, RBCs 20 days post collection, 1.4×10^9 per ml
  410 nm absorbance, Actual: 0.965 ± 0.026
Pig RBCs; 340 μM, 48° C. 30 min, corrected for RBC dilution
  410 nm absorbance, Corrected: 0.724
Pig RBCs; 340 μM, listed as Mimosine
  effect on thermal hemolysis, in words: had no effect
Pig RBCs; 340 μM, listed as mimosine
  effect on thermal hemolysis, in words: failed to protect

## OO [Hydrogen peroxide, reference compound]
Porcine RBCs; Lu-BSA binding, pretreatment 44 mM, 37° C., 15 min, RBCs 19 days post collection
  CL (30 s): 558 ± 157 counts/30 s
Porcine RBCs; Sus scrofa, 0.25 h, 44 mM, 15 min, 37° C. (hot air), 1.4×10^9 RBCs/ml, read-out: increase in bound Lu-BSA compared to cells maintained in PBS
  activation at 44000 µM: 721%
Porcine RBCs; Sus scrofa, 0.5 h, hydrogen peroxide 11.7 mM, 37° C., 30 min, vs 4° C. control, read-out: Percent difference from control
  activation at 11700 µM: 254%
Porcine RBCs; hydrogen peroxide 11.7 mM, 37° C., 30 min, RBCs less than 24 hours post collection
  CL (30 s): 1346 ± 386 counts/30 s

## CC(O)C(=O)O (centres unmarked) [Lactate]
[1]; 1.43 mM
  effect on CL of labeled cells, in words: insignificant increases
[1]; [5]
  CL (30 sec): 30,930 ± 3,399 counts/30 sec
[1]; [6]
  activity at 1430 µM: 102%
Pig RBCs; 10 mM, 43° C., RBCs 6 days post-collection
  change in hemolysis, in words: insignificant increases
Pig RBCs; 10 mM
  410 nm optical absorbance of 1:2 diluted supernatant, 4° C.: 0.362
  thermal hemolysis, 410 nm optical absorbance, Hot air: 0.667 ± 0.04
  thermal hemolysis, 410 nm optical absorbance, Microwave exposed: 0.643 ± 0.02
  410 nm optical absorbance of 1:2 diluted supernatant, Hot air: 0.440 ± 0.078
  410 nm optical absorbance of 1:2 diluted supernatant, Microwave exposed: 0.424 ± 0.014

## myeloperoxidase
[3]
  biological half-life: about 24 hours
[4]; agent alone
  effect on tumor growth, in words: Neither myeloperoxidase nor thio-TEPA alone were effective
[4]; myeloperoxidase injected in combination with thio-TEPA
  effect on tumor growth, in words: significant reduction in tumor growth

## S=P(N1CC1)(N1CC1)N1CC1 [thio-TEPA, reference compound]
[4]; agent alone
  effect on tumor growth, in words: Neither myeloperoxidase nor thio-TEPA alone were effective
